{"source": "patent US9540391B2", "about": "“Isomannide derivatives as inhibitors of soluble epoxide hydrolase” (SANOFI, priority 2013, dated 2017)", "note": "Counter-ions that a name gives are not always drawn.", "data": [{"biological_target": "T1, recombinant sEH (Homo sapiens, UniProt P34913)", "T1 construct": "made in house; host or cells: Sf9 insect cells", "T1 sequence (P34913 1-555)": "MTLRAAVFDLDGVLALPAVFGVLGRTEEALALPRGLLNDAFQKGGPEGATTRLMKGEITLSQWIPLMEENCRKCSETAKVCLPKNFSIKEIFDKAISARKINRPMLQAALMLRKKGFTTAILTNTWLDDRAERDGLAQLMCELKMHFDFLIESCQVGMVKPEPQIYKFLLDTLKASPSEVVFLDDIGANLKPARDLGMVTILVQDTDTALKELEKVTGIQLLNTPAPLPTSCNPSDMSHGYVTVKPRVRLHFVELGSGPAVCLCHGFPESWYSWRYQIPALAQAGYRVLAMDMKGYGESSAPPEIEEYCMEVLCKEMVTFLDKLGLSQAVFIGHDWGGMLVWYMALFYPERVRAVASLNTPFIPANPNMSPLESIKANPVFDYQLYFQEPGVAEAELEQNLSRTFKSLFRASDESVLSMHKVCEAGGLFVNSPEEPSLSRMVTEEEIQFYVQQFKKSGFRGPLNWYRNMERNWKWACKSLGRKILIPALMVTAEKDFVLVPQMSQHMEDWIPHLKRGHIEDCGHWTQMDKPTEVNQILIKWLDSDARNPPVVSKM", "assay": "biochemical screening assay for inhibition of soluble epoxide hydrolase (fluorometric, Phome substrate)", "in_short": "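Reading fluorescence before substrate addition and after completion corrected for autofluorescence. Reaction: 5 μM Phome, 2 nM recombinant human sEH (Sf9-expressed), compound 0.0001–10 μM, 25 mM Hepes with 0.01% albumin, 15 min pre-incubation then 60 min at 30 °C; IC50 derived from % inhibition.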", "units": {"IC50": "nM"}, "values": [{"smiles": "Cc1ncccc1O[C@H]1CO[C@H]2[C@@H]1OC[C@@H]2NC(=O)NCC1(c2ccccc2)CCCC1", "note": "[Example 184, 1-[(3S,3aR,6S,6aS)-6-(2-Methyl-pyridin-3-yloxy)-hexahydro-furo[3,2-b]furan-3-yl]-3-(1-phenyl-cyclopentylmethyl)-urea]", "IC50": 6}, {"smiles": "Cc1cc(O[C@H]2CO[C@H]3[C@@H]2OC[C@@H]3NC(=O)NC2CCCCC2)cnc1Cl", "note": "[Example 65, 1-[(3S,3aR,6S,6aS)-6-(6-Chloro-5-methyl-pyridin-3-yloxy)-hexahydro-furo[3,2-b]furan-3-yl]-3-cyclohexyl-urea]", "IC50": 2}, {"smiles": "O=C(NC1CCCCC1)N[C@H]1CO[C@H]2[C@@H]1OC[C@@H]2Oc1cccc(N2CCCC2=O)c1", "note": "[Example 107, 1-Cyclohexyl-3-{(3S,3aR,6S,6aS)-6-[3-(2-oxo-pyrrolidin-1-yl)-phenoxy]-hexahydro-furo[3,2-b]furan-3-yl}-urea]", "IC50": 2}, {"smiles": "O=C(Nc1ccc(OC(F)(F)F)cc1)N[C@H]1CO[C@@H]2[C@@H](CCc3ccccc3)CO[C@@H]21", "note": "[Example 372, 1-((3S,3aR,6S,6aR)-6-Phenethyl-hexahydro-furo[3,2-b]furan-3-yl)-3-(4-trifluoromethoxy-phenyl)-urea]", "IC50": 11}, {"smiles": "O=C(NC1CCCCC1)N[C@H]1CO[C@H]2[C@@H]1OC[C@@H]2Oc1cncc(F)c1", "note": "[Example 35, 1-Cyclohexyl-3-[(3S,3aR,6S,6aS)-6-(5-fluoro-pyridin-3-yloxy)-hexahydro-furo[3,2-b]furan-3-yl]-urea]", "IC50": 12}, {"smiles": "O=C(Nc1cccc(F)c1)N[C@H]1CO[C@H]2[C@@H]1OC[C@@H]2/C=C\\c1ccccc1", "note": "[Example 329, 1-(3-Fluoro-phenyl)-3-[(3S,3aR,6S,6aR)-6-((Z)-styryl)-hexahydro-furo[3,2-b]furan-3-yl]-urea]", "IC50": 95}, {"smiles": "O=C(NC1CCCCC1)N[C@H]1CO[C@H]2[C@@H]1OC[C@@H]2Oc1ccc(Br)cc1", "note": "[Example 138, 1-[(3S,3aR,6S,6aS)-6-(4-Bromo-phenoxy)-hexahydro-furo[3,2-b]furan-3-yl]-3-cyclohexyl-urea]", "IC50": 3}, {"smiles": "Cc1ncccc1O[C@H]1CO[C@H]2[C@@H]1OC[C@@H]2NC(=O)NCc1ccccc1OC(F)F", "note": "[Example 188, 1-(2-Difluoromethoxy-benzyl)-3-[(3S,3aR,6S,6aS)-6-(2-methyl-pyridin-3-yloxy)-hexahydro-furo[3,2-b]furan-3-yl]-urea]", "IC50": 1}, {"smiles": "Cc1cc(C)cc(NC(=O)NC2COC3C(C#Cc4ccccc4)COC23)c1", "note": "[Example 285, 1-(3,5-Dimethyl-phenyl)-3-[(3S,3aR,6R)-6-((S)-phenylethynyl)-hexahydro-furo[3,2-b]furan-3-yl]-urea]", "IC50": 21}, {"smiles": "Cc1cc(Cl)ncc1O[C@H]1CO[C@H]2[C@@H]1OC[C@@H]2NC(=O)NC1CCCCC1", "note": "[Example 66, 1-[(3S,3aR,6S,6aS)-6-(6-Chloro-4-methyl-pyridin-3-yloxy)-hexahydro-furo[3,2-b]furan-3-yl]-3-cyclohexyl-urea]", "IC50": 2}, {"smiles": "N#C[C@H]1CO[C@H]2[C@@H]1OC[C@@H]2NC(=O)Nc1ccc(OC(F)(F)F)cc1", "note": "[Example 378, 1-((3S,3aR,6S,6aR)-6-cyano-hexahydro-furo[3,2-b]furan-3-yl)-3-(4-trifluoromethoxy-phenyl)-urea]", "IC50": 24}, {"smiles": "COc1cc(NC(=O)N[C@H]2CO[C@@H]3[C@@H]2OC[C@H]3C#Cc2ccccc2)cc(OC)c1", "note": "[Example 284, 1-(3,5-Dimethoxy-phenyl)-3-[(3S,3aR,6R)-6-((S)-phenylethynyl)-hexahydro-furo[3,2-b]furan-3-yl]-urea]", "IC50": 71}, {"smiles": "Cc1ncccc1OC1COC2C(NC(=O)NC34CC5(C)CC(C)(CC(O)(C5)C3)C4)COC12", "note": "[Example 230, 1-((1R,3S,5R,7S)-3-Hydroxy-5,7-dimethyl-adamantan-1-yl)-3-[(3S,3aR,6S,6aS)-6-(2-methyl-pyridin-3-yloxy)-hexahydro-furo[3,2-b]furan-3-yl]-urea]", "IC50": 19}, {"smiles": "O=C(N[C@H]1CO[C@H]2[C@@H]1OC[C@@H]2Oc1ccc(F)cc1)N[C@@H]1CCCC[C@H]1OCc1ccccc1", "note": "[Example 164, 1-((1R,2R)-2-Benzyloxy-cyclohexyl)-3-[(3S,3aR,6S,6aS)-6-(4-fluoro-phenoxy)-hexahydro-furo[3,2-b]furan-3-yl]-urea]", "IC50": 487}, {"smiles": "O=C(Nc1ccc(OCc2ccccc2)cc1)NC1COC2C(CCc3ccccc3)COC12", "note": "[Example 355, 1-(4-Benzyloxy-phenyl)-3-[(3S,3aR,6R)-6-((S)-phenethyl)-hexahydro-furo[3,2-b]furan-3-yl]-urea]", "IC50": 80}, {"smiles": "COC(=O)c1cccc(NC(=O)N[C@H]2CO[C@H]3[C@@H]2OC[C@@H]3/C=C\\c2ccsc2)c1", "note": "[Example 343, 3-{3-[(3S,3aR,6S,6aR)-6-((Z)-2-Thiophen-3-yl-vinyl)-hexahydro-furo[3,2-b]furan-3-yl]-ureido}-benzoic acid methyl ester]", "IC50": 102}, {"smiles": "Cc1ncccc1O[C@H]1CO[C@H]2[C@@H]1OC[C@@H]2NC(=O)NC1CCCN(C(=O)C(F)(F)F)C1", "note": "(stereo partly drawn) [Example 87, 1-[(3S,3aR,6S,6aS)-6-(2-Methyl-pyridin-3-yloxy)-hexahydro-furo[3,2-b]furan-3-yl]-3-[1-(2,2,2-trifluoro-acetyl)-piperidin-3-yl]-urea]", "IC50": 10}, {"smiles": "CCCCOc1ccc(NC(=O)NC2COC3C(C#N)COC23)cc1", "note": "(stereo not shown) [Example 380]", "IC50": 304}, {"smiles": "O=C(NC1CCCCC1)N[C@H]1CO[C@H]2[C@@H]1OC[C@@H]2Oc1cccnc1", "note": "[Example 96, 1-Cyclohexyl-3-[(3S,3aR,6S,6aS)-6-(pyridin-3-yloxy)-hexahydro-furo[3,2-b]furan-3-yl]-urea; trifluoroacetate]", "IC50": 4}, {"smiles": "O=C(Nc1cccc(F)c1)N[C@H]1CO[C@H]2[C@@H]1OC[C@@H]2C#Cc1ccccc1", "note": "[Example 294, 1-(3-Fluoro-phenyl)-3-((3S,3aR,6S,6aR)-6-phenylethynyl-hexahydro-furo[3,2-b]furan-3-yl)-urea]", "IC50": 123}, {"smiles": "Cc1ncccc1O[C@H]1CO[C@H]2[C@@H]1OC[C@@H]2NC(=O)NC1CCCNC1", "note": "(stereo partly drawn) [Example 82, 1-[(3S,3aR,6S,6aS)-6-(2-methyl-pyridin-3-yloxy)-hexahydro-furo[3,2-b]furan-3-yl]-3-piperidin-3-yl-urea; hydrochloride]", "IC50": 2620}, {"smiles": "O=C(NC1CCCCC1)N[C@H]1CO[C@@H]2[C@@H](CCc3ccccc3)CO[C@@H]21", "note": "[Example 349, 1-Cyclohexyl-3-((3S,3aR,6S,6aR)-6-phenethyl-hexahydro-furo[3,2-b]furan-3-yl)-urea]", "IC50": 37}, {"smiles": "Cc1cc(C)c(S[C@H]2CO[C@H]3[C@@H]2OC[C@@H]3NC(=O)NC2CCCCC2)cn1", "note": "[Example 53, 1-Cyclohexyl-3-[(3S,3aR,6S,6aS)-6-(4,6-dimethyl-pyridin-3-ylsulfanyl)-hexahydro-furo[3,2-b]furan-3-yl]-urea]", "IC50": "< 1"}, {"smiles": "Cc1ncc(O[C@H]2CO[C@H]3[C@@H]2OC[C@@H]3NC(=O)NC2CCCCC2)cn1", "note": "[Example 41, 1-Cyclohexyl-3-[(3S,3aR,6S,6aS)-6-(2-methyl-pyrimidin-5-yloxy)-hexa-hydro-furo[3,2-b]furan-3-yl]-urea]", "IC50": 25}, {"smiles": "Cc1ncccc1O[C@H]1CO[C@H]2[C@@H]1OC[C@@H]2NC(=O)NCc1cc(F)ccc1OC(F)(F)F", "note": "[Example 279, 1-(5-Fluoro-2-trifluoromethoxy-benzyl)-3-[(3S,3aR,6S,6aS)-6-(2-methyl-pyridin-3-yloxy)-hexahydro-furo[3,2-b]furan-3-yl]-urea]", "IC50": 1}, {"smiles": "COc1ccc(O[C@H]2CO[C@H]3[C@@H]2OC[C@@H]3NC(=O)NC2CCCCC2)cc1", "note": "[Example 18, 1-Cyclohexyl-3-[(3S,3aR,6S,6aS)-6-(4-methoxy-phenoxy)-hexahydro-furo[3,2-b]furan-3-yl]-urea]", "IC50": 1}, {"smiles": "O=C(Nc1ccc2c(c1)OCCO2)NC1COC2C(C#Cc3ccccc3)COC12", "note": "[Example 295, 1-(2,3-Dihydro-benzo[1,4]-dioxin-6-yl)-3-((3S,3aR,6S,-6aR)-6-phenylethynyl-hexa-hydro-furo[3,2-b]furan-3-yl)-urea]", "IC50": 112}, {"smiles": "Cc1ncccc1O[C@H]1CO[C@H]2[C@@H]1OC[C@@H]2NC(=O)NCc1ccccn1", "note": "[Example 172, 1-[(3S,3aR,6S,6aS)-6-(2-Methyl-pyridin-3-yloxy)-hexahydro-furo[3,2-b]furan-3-yl]-3-pyridin-2-ylmethyl-urea]", "IC50": 1240}, {"smiles": "CSc1cccc(NC(=O)N[C@H]2CO[C@H]3[C@@H]2OC[C@@H]3C#Cc2ccsc2)c1", "note": "[Example 312, 1-(3-Methylsulfanyl-phenyl)-3-((3S,3aR,6S,6aR)-6-thiophen-3-ylethynyl-hexahydro-furo[3,2-b]furan-3-yl)-urea]", "IC50": 107}, {"smiles": "O=C(Nc1ccc(OC(F)(F)F)cc1)N[C@H]1CO[C@H]2[C@@H]1OC[C@@H]2/C=C\\c1ccsc1", "note": "[Example 345, 1-[(3S,3aR,6S,6aR)-6-((Z)-2-Thiophen-3-yl-vinyl)-hexahydro-furo[3,2-b]furan-3-yl]-3-(4-trifluoromethoxy-phenyl)-urea]", "IC50": 11}, {"smiles": "O=C(NC1CCCCC1)N[C@H]1CO[C@H]2[C@@H]1OC[C@@H]2Oc1cccc2ccc(N3CCCC3)nc12", "note": "[Example 137, 1-Cyclohexyl-3-[(3S,3aR,6S,6aS)-6-(2-pyrrolidin-1-yl-quinolin-8-yloxy)-hexahydro-furo[3,2-b]furan-3-yl]-urea; trifluoroacetate]", "IC50": 4}]}]}
